Experimental data: US20250345318A1, “COMPOUND AND USE THEREOF IN PREVENTING OR TREATING RADIATION DAMAGE” (SIMCERE PHARMACEUTICAL CO., LTD., priority 2022, published 2025)

Legend:
Caco-2 cells = experiment: Integrity of irradiated single Caco-2 cell layer: electric resistance, FD4 permeability (Example 23); type: cell-based; conditions: 20 Gy, 24 h later
Method: Caco-2 cells were cultured in a mixture of 78% MEM+20% FBS+1% P/S+1% NEAA and seeded in a 24-well chamber at a density of 10,000 cells/well, with the culture medium refreshed once every 2 days until day 11. The cells were then pretreated with DMSO or 1, 3, or 10 μM R-JAC4 for 3 days. The single cell layer model was constructed during the 14 days. The model was then irradiated at a dose of 0 Gy or 20 Gy at a dose rate of 2.5 Gy/min, and the electric resistance of the single cell layer and the permeability of FD4 were measured 24 h later.

[1] = Pharmacokinetics of R-JAC4 and S-JAC4 in mice (Example 17); type: in vivo; conditions: for F / clearance (CL) / AUC(0-t) / Cmax / Tmax / half-life / C0 / Vd: female BALB/c mice; for F: intragastric 10 mg/kg vs intravenous 3 mg/kg; for clearance (CL) / AUC(0-t) / Cmax / Tmax / half-life / C0 / Vd: mean, n = 3; for AUC(0-t) / Cmax / Tmax / half-life / C0 / Vd: mouse, plasma; for Vd: read-out: Vss
JWA^IEC WT mice = experiment: R-JAC4 in radiation enteritis model, JWA^IEC WT mice (Example 19); type: in vivo; conditions: R-JAC4 10 mg/kg
Method: (§1) Intestinal epithelial cell JWA-knockout mice (JWA^IEC KO) and their wild type littermates (JWA^IEC WT) were subjected to radiation enteritis modeling in the same manner as in Example 17 and were given R-JAC4 10 mg/kg treatment. In addition to the detection of FD4 concentration, the plasma was collected from the mice at the end of study to detect the plasma proinflammatory cytokine level by ELISA and the activity of antioxidant-related enzymes by biochemical tests.

JWA^IEC KO mice = experiment: R-JAC4 in radiation enteritis model, JWA^IEC KO mice (Example 19); type: in vivo
Method: as §1

C57/BL6 mice = experiment: R-JAC4 in radiation enteritis mouse model: plasma FD4, small intestine length (Example 18); type: in vivo; conditions: R-JAC4 10 mg/kg and 3 mg/kg intragastric, ABI 12 Gy
Method: The formulation of the vehicle for R-JAC4 was polyethylene glycol:ethanol:physiological saline=40:7.5:52.5, v/v/v. The vehicle group and the treatment groups were given the vehicle or treatment at the same volume by the same route.
The vehicle was administered to the vehicle control group intragastrically, and R-JAC4 10 mg/kg and R-JAC4 3 mg/kg interventions were given to the R-JAC4 treatment groups intragastrically. The treatment started 7 days before the X-ray radiation and was administrated once daily until the day before the end of study, for a total of […].
X-ray radiation: The mice were anesthetized intraperitoneally and exposed to ABI using an X-ray irradiator (12 Gy, 1.25 Gy/min). The irradiated region was a 3 cm region above the iliac joint below the chest, so as to induce gastrointestinal radiation syndrome.
Permeability detection in the small intestine: On day 4 post-radiation, FITC-dextran 4 kDa, abbreviated as FD4, was given to the mice intragastrically at a dose of 0.6 mg/g body weight. Peripheral blood was collected in an anticoagulation tube after 4 h, and the plasma was collected by centrifugation. The samples were added to a 96-well plate at 100 μL, and the fluorescence intensity was measured (excitation wavelength: 485 nm, emission wavelength: 535 nm). The FD4 concentrations of the samples were calculated by regression according to a standard curve. […]

[2] = 1 μM R-JAC4 3 days pretreatment
[3] = 3 μM R-JAC4 3 days pretreatment
[4] = single intravenous dose 3 mg/kg
[5] = po, single intragastric dose 10 mg/kg
[6] = R-JAC4, JWA^IEC KO mice vs vehicle control

F [1] [%]	clearance (CL) [1, 4] [mL/min/kg]	AUC(0-t) [1, 5] [ng·h/mL]	Cmax [1, 5] [ng/mL]	Tmax [1, 5] [min]	half-life [1, 5] [min]	AUC(0-t) [1, 4] [ng·h/mL]	C0 [1, 4] [ng/mL]	half-life [1, 4] [min]	Vd [1, 4] [L/kg]	Structure (SMILES)	also measured
3.94	140	49.5	176	4.98	22.7	374	1680	36	3.64	c1ccc(CSc2nnc([C@H]3COc4ccccc4O3)o2)nc1 [R-JAC4]	electric resistance of the single Caco-2 cell layer (Caco-2 cells; [2]): 1016±64.65 Ω·cm^2; permeability of FD4 through the single cell layer (Caco-2 cells; [2]): 410.60 ± 50.99 ng/mL; electric resistance of the single Caco-2 cell layer (Caco-2 cells; [3]): 1138±25.97 Ω·cm^2; permeability of FD4 through the single cell layer (Caco-2 cells; [3]): 345.40 ± 29.85 ng/mL; electric resistance of the single Caco-2 cell layer (Caco-2 cells; 10 μM R-JAC4 3 days pretreatment): 1109±101.20 Ω·cm^2; oral bioavailability, comparison of isomers ([1]; BALB/c mice, calculated by F=(AUC-po/Dose-po)/(AUC-iv/Dose-iv)): higher than that of S-JAC4; activity of plasma glutathione peroxidase and catalase (JWA^IEC WT mice): significantly increased; plasma FD4 level (JWA^IEC WT mice): significantly downregulated; plasma levels of proinflammatory cytokines TNF-α and IL-1β (JWA^IEC WT mice): significantly reduced; plasma FD4 level (JWA^IEC KO mice; R-JAC4 10 mg/kg, JWA^IEC KO mice vs vehicle control): no significant change; activity of plasma glutathione peroxidase and catalase (JWA^IEC KO mice; [6]): no significant changes; plasma levels of proinflammatory cytokines TNF-α and IL-1β (JWA^IEC KO mice; [6]): no significant changes; shortening extent of the small intestine (C57/BL6 mice): effective in reducing the shortening extent of the small intestine in a dose-dependent manner; concentration of fluorescein FD4 in the plasma (C57/BL6 mice; day 4 post-radiation): dose-dependent down-regulation effect
1.32	121	17.2	48.7	4.98	27.1	410	1650	116	7.72	c1ccc(CSc2nnc([C@@H]3COc4ccccc4O3)o2)nc1 [S-JAC4]	–
